Reference: patent EP0565593B1, “REDUCING PESTICIDAL INTERACTIONS IN CROPS” (priority 1990, dated 1992)
Values joined by “and” are separate entries in the source; they are usually repeats but may differ in a detail not shown here. Equal entries are not always repeated. Where two headings read alike, the source gives them in different places.

Test system: Corn

COC(=O)c1c(Cl)nn(C)c1S(=O)(=O)NC(=O)Nc1nc(OC)cc(OC)n1 [Herbicide No. 1, N-[(4,6-dimethoxypyrimidin-2-yl)aminocarbonyl]-3-chloro-4-methoxycarbonyl-5-sulfonamide, reference compound]
% Inhibition Corn (Herb. […], PPI, 13 days after planting): 70% | % Inhibition Corn (Herbicide No. 1 0.0175 Kg/Ha PPI alone, Table 19): 5% | % Inhibition Corn (Herbicide No. 1 0.0175 Kg/Ha PPI alone, Table 20): 0% | % Inhibition Corn (Herbicide No. 1 0.0175 Kg/Ha PPI alone, Table 21): 0% | % Inhibition Corn (Herbicide No. 1 0.0175 Kg/Ha PPI alone, Table 22): 0% | corn injury (MON-12000 0.14 kg/ha with the OP insecticides at 8.96 kg/ha): 45-50% | corn injury (MON-12000 0.14 kg/ha without insecticide, Examples 20-23): 0-5% | % Inhibition Corn (Table 53, Herbicide No. 1, rate printed as '-', where applied Biocide No. 7 8.96 kg/Ha and antidote 4.48 Kg/Ha, all PPI, observed 13 days after treatment): 5% | % Inhibition Corn (Table 54, Herbicide No. 1, rate printed as '-', where applied Biocide No. 6 8.96 kg/Ha and antidote 4.48 Kg/Ha, all PPI, observed 14 days after PPI initiation): 5% | % Inhibition Corn (in vivo): 50% and 45%
